Data on 2 molecules can be found in patent US20210161840A1, “COMPOSITIONS AND METHODS FOR TREATMENT OF IRON OVERLOAD” (priority 2018, published 2021).

The conditions of data set [1]: Keberle, 1964; cited from earlier work.
For data set [2] the following is noted: Keberle, 1964; cited from earlier work. This is another data set of the same source.
The conditions of data set [3]: Keberle, 1964; cited from earlier work. The source holds these as a separate data set.
The conditions of data set [4]: Keberle, 1964; cited from earlier work. The source holds these as a separate data set.
Data set [5] concerns doxorubicin-induced cardiomyopathy. Kind of data set: Doxorubicin-induced cardiomyopathy in mice. The format is in vivo, C57BL/6 mice. Here is the method: The purpose of this study was to assess the protective effect of dexrazoxan or the zinc-dexrazoxan complex, administered with or without Ga-DFO, against doxorubicin-induced cardiomyopathy.
C57BL/6 mice are injected once with doxorubicin, 20 mg/kg, i.p., and then divided into the following 5 groups: Group 1: untreated; Group 2: treated with dexrazoxan single dose of 400 mg/kg i.v.; Group 3: treated with the zinc complex of dexrazoxan single dose of 100 mg/kg i.v.; Group 4: treated with the Ga-DFO complex 6 mg/kg, and Group 5: treated with the zinc complex of dexrazoxan single dose of 50 mg/kg i.v. together with Ga-DFO 4 mg/kg. The animals are monitored for 21 days, measuring their survival (Kaplan-Meier curves). On Day 21 the animals are sacrificed, and their hearts are assessed histologically for cardiac remodeling and hypertrophy (collagen % or area).

Consider `CC(=O)N(O)CCCCCNC(=O)CCC(=O)N(O)CCCCCNC(=O)CCC(=O)N(O)CCCCCN` [DFO, N′-[5-(acetyl-hydroxy-amino)pentyl]-N-[5-[3-(5-aminopentyl-hydroxy-carbamoyl)propanoylamino]pentyl]-N-hydroxy-butane diamide], for which the “relative stability constant of DFO complex with Fe(III)” value in data set [1] is 10^31. In data set [2], the “relative stability constant of DFO complex with Cu(II)” value is recorded as 10^14. Besides, in data set [3], the “relative stability constant of DFO complex with Zn(II)” value was 10^11. Besides, the “relative stability constant of DFO complex with Ga(III)” value in data set [4] was 10^28.
As to `C[C@@H](CN1CC(=O)NC(=O)C1)N1CC(=O)NC(=O)C1` [dexrazoxan], in data set [5] (Day 15 after doxorubicin 20 mg/kg i.p., about 90% of untreated mice die), the survival result is listed as “about 50%”. Further, the “collagen % of the area (cardiac histology)” value in data set [5] (Day 21 after doxorubicin 20 mg/kg i.p., untreated about 10-12%) is listed as “about 9%”.
